For assay [1] the following is noted: incorporation of 36 mol % into archaeosomes; Sprott et al (23); cited from earlier work.
Assay [2] relates to antigen specific EG.7 targets. Put plainly: CTL activity in splenocytes of immunized mice, Cr51-assay. The assay is classed as in vivo, C57BL/6 mice. The note with it: 15 μg OVA s.c. 0 and 3 weeks; spleens 7 weeks after first immunization. As to the method: To determine adjuvant activity, various synthetic archaeosomes with OVA entrapped (OVA-archaeosomes) were used to immunize female C57BL/6 mice on days 0 and 21 (6-8 weeks old on first injection). Injections were subcutaneous at the tail base with 0.1 ml PBS containing 15 μg OVA entrapped in 0.2-0.63 mg lipids. Blood samples were collected from the tail vein for anti-OVA IgG/IgM antibody titration done by ELISA (13). In some cases faecal extracts were assayed for IgA (and IgG) to assess mucosal responses following systemic immunizations. Fresh faeces (about 30 mg dry weight) were collected from 4 mice/group, and extracted by adding 0.5 ml of phosphate buffered saline (pH 7.0) containing 10% fetal calf serum and 0.1% sodium azide. Homogenized samples were centrifuged and Elisa measured anti OVA antibody in supernatants. Spleens were collected to determine CTL activity using the Cr^51-assay with specific and non-specific targets EG.7 and EL-4, respectively (14). In Elispot assays antigen-specific CD8^+ T cell activity was measured in splenic cells from immunized mice by determining the number of SIINFEKL stimulated IFN-γ-secreting cells per 5×10^5 splenic cells (15).

The test system of assay [3] is Listeria monocytogenes (LM)-OVA construct. Put plainly: Protection against LM-OVA challenge after vaccination, splenic CFU. The assay is classed as in vivo. The note with it: glyco-archaeol/DPPG/chol (25/55/20, mol %), FIG. 13. Here is the method:
FIG. 13 illustrates protection against LM-OVA challenge after vaccination with OVA-adjuvant combinations. C57BL/6J mice were immunized on day 0 and 21 with 15 ug OVA entrapped in various synthetic archaeosomes composed of the respective synthetic glyco-archaeol/DPPG/chol (25/55/20, mol %). At 8 weeks, mice were challenged with 10^4 intravenous dose of Listeria monocytogenes (LM)-OVA construct. Mice were euthanized 3 days later. Mean±SEM of splenic colony forming units (CFU) is shown for each group.

The test system of assay [4] is antigen-specific CD8+ T cell. Put plainly: Antigen-specific CD8+ T cell activity in blood by tetramer assay. The note with it: glyco-archaeol/DPPG/chol (25/55/20, mol %); data not shown. The assay is classed as in vivo, C57BL/6J mice. Here is the method: Mice vaccinated with synthetic archaeosomes containing an appropriate antigen were protected from infection (FIG. 13). […] The lower CD8^+ T cell response observed for this latter archaeosome previously appears to be in part due to the shorter period from first injection to assay in FIG. 7C. In this example (FIG. 13), the antigen-specific CD8^+ T cell activity was measured in blood by tetramer assay and found to be about 30% as high in the maltotriose-A group compared to the gentiotriose-A group (data not shown).

The next assay has as its system Macrophages J774A.1. Put plainly: Up-regulation of co-stimulatory molecule CD80 on APCs, flow cytometry. The note with it: 25 μg liposomes or archaeosomes 48 h; LPS 10 μg 24 h; anti-CD80-PE. The assay is classed as cell-based. As to the method:
Macrophages J774A.1 were incubated for 48 h with 25 μg of archaeosomes prior to staining and analysis by flow cytometry (Table 13). […] Immuno-activity was clearly ascribed to the synthetic glyco-archaeal lipid.

On to `CC(C)CCCC(C)CCCC(C)CCCC(C)CCOCC(CO[C@@H]1O[C@H](CO[C@@H]2O[C@H](CO)[C@@H](O)[C@H](O)[C@H]2O)[C@@H](O)[C@H](O)[C@H]1O)OCCC(C)CCCC(C)CCCC(C)CCCC(C)C` (stereo partly drawn) [DGAs, β-D-Glc-(1,6)-β-D-Glc-archaeol], for which the “adjuvant activity” value in assay [1] is given as “striking decline in adjuvant activity”. For `CC(C)CCC[C@@H](C)CCC[C@@H](C)CCC[C@@H](C)CCOC[C@H](CO[C@@H]1O[C@H](CO)[C@@H](O[C@H]2O[C@H](CO)[C@@H](O[C@H]3O[C@H](CO)[C@@H](O)[C@H](O)[C@H]3O)[C@H](O)[C@H]2O)[C@H](O)[C@H]1O)OCC[C@H](C)CCC[C@H](C)CCC[C@H](C)CCCC(C)C` [maltotriose-A], the “CTL adjuvant activity, FIG. 3” value in assay [2] is reported as “best adjuvant activity”. Moreover, in assay [3], the “protection from LM-OVA infection” value was “striking protection”. In addition, the “antigen-specific CD8+ T cell activity in blood, % as high as the gentiotriose-A group” value in assay [4] is reported as “about 30%”. For Lipopolysaccharide, the “Mean fluorescence Intensity CD80” value in the assay with Macrophages J774A.1 came to 33.2.

The values are drawn from patent publication US8936793B2, “Synthetic archaeal glycolipid adjuvants” (National Research Council of Canada, priority 2006, dated 2015).
